{"source": "patent US20200247851A1", "about": "“Methods For Generating Epitopes For Binding To Recognition Molecules By Templated Assembly” (TriBiotica LLC, priority 2017, published 2020)", "molecules": {"B1": {"name": "GCAAAGACATCTGGACA CGCCACTTATAGTCTACGTGAAGCACTGCGCTGGAACAGCCTAAAAAAGGAGAAGG AGACTTAGAGGC (nucleic acid)", "DNA": "GCAAAGACATCTGGACACGCCACTTATAGTCTACGTGAAGCACTGCGCTGGAACAGCCTAAAAAAGGAGAAGGAGACTTAGAGGC", "modifications": "chemistry not given here"}}, "key": {"trastuzumab [1]": {"test_system": "trastuzumab", "assay": "ELISA of biotinylated mimotope peptides on streptavidin plates titrated with trastuzumab", "assay_type": "binding", "settings": "400 nM biotinylated peptide coating, trastuzumab 2-fold serial dilutions", "method": "For intact mimotopes and their analogs, peptides with an N-terminal biotin label and a flexible spacer composed of serine and glycine residues (typically […]; SEQ ID NO:110) were used.\nELISA plates coated with tetravalent streptavidin were obtained for the assay, either from a commercial source (such as Thermofisher) or made by incubating polystyrene 96-well ELISA plates with solutions of streptavidin in PBS (1 μM) 16 hours/4° C., followed by blocking with a solution of bovine serum albumin (BSA) at 10 mg/ml in PBS pH 7.2, also for 16 hours/4° C. Plates were then emptied of solutions and washed three times with 100 μl PBS containing 0.05% Tween 20 (PBS-Tw20).\nA suitable dilution series of the biotinylated peptides of interest was prepared in PBS, and at least duplicates (or higher numbers of replicates) were added to pre-designated wells in 100 μl volumes, and the plate incubated for 2 hours at room temperature (covered in Saran wrap). […] After a 30 minute incubation, reactions were stopped with 1 M sulfuric acid, and results assessed with an automated plate reader for absorbances at 450 nm. Final data was compiled from averaged replicates for each determination with subtraction of absorbances observed in wells where no target peptide antigen was added. […]"}, "[2]": {"test_system": "bilabeled fluorescent probe sequence", "settings": "human EBV-transformed B lymphoid cell line, biotinylated W6/32, streptavidin bridge", "protocol": "Following incubation of cells (10^6/ml) with a biotin conjugate of primary antibody pan-specific for human Class I (W6/32) and washing in phosphate-buffered saline (pH 7.2; PBS), the cell preparation was treated with a large excess of unmodified tetravalent streptavidin (Sigma; 10 μl each of 100 μM streptavidin per 100 μl of cells at 10^6/ml) for 30 minutes at room temperature, and rewashed in PBS.\nFollowing this, a biotinylated template oligonucleotide was added, such that its terminal biotin group becomes bound to free sites on the surface streptavidin. […] The DNA template sequence used in this example corresponds to a transcribed segment of human papillomavirus (HPV), of sequence: 5′-Biotin-[sequence] […] As a control, a scrambled version of this sequence was used: 5′ Biotin-[sequence]"}, "trastuzumab [3]": {"test_system": "trastuzumab", "settings": "L1 Q substitution; cited from earlier work"}, "trastuzumab [4]": {"test_system": "trastuzumab", "assay": "Flow analysis of trastuzumab mimotope placed on HER-2-negative MU89 cells via streptavidin bridge", "assay_type": "cell-based", "settings": "MU89 melanoma cells, W6/32 biotinylated primary antibody, fluoresceinated goat anti-kappa read-out", "text": "In common with Example 11, for the repurposing of an antibody epitope by placement of a peptide mimotope on a cell surface, a surface marker for the cell type of interest was defined. […] The complex (biotinylated template-streptavidin-primary antibody) was then assembled on MU89 surface. Following that procedure and washing, biotinylated mimotope (Biotin-[…] ELWELSH; SEQ ID NO:35) was allowed to bind to the surface streptavidin. […] Subsequently, since trastuzumab is a humanized antibody with kappa light chains, a fluoresceinated goat anti-kappa antibody served to provide the final fluorescent read-out enabling flow analysis. […] However, it should be noted that while an amplification effect for fluorescent signal results from the multi-layered sandwich technique of this approach, the overall signal is ultimately linked to the level of expression of the primary antibody target."}, "[5]": {"test_system": "biotinylated anti-BRD7 Fab (bFab)", "assay": "Direct Binding Assay using streptavidin magnetic beads, denaturing gel read-out", "parameters": "species or system murine", "settings": "with vs without bFab, PBSM", "method": "Aptamers were incubated with bFab (2.5-fold molar excess), then bound to SAMBs. Supernatants were taken, and the SAMBs washed 3 times. Bound material was eluted with 0.1 M NaOH, and then precipitated, washed, dried, and reconstituted before loading samples on a denaturing acrylamide gel.\nTo assess binding of 10th-cycle singlet aptamers to the selective agent (the Fab target), direct binding assays were carried out. Here, single-stranded aptamer preparations (self-annealed as usual) were incubated with or without biotinylated Fab fragments in PBSM, followed by adsorption onto streptavidin magnetic beads. After this incubation period, the beads were magnetically separated, and the supernatants retained. […]\nDespite successful in situ assembly of binary aptamers upon the target to which they were bound (as in Example 1), it could not be assumed that binary aptamers formed in solution would be capable of binding the same targets. This was assessed using the same aptamers as used in direct binding tests (Example 3; 228/10AptR1 and 229/10AptL3), but where the aptamers were initially ligated together by means of the same splint oligonucleotide as used in Example 1. […]"}}, "note": "No end group written: not given here. *: point of attachment. Biotin = O=C1N[C@H]2[C@H](CS[C@H]2CCCCC(=O)*)N1", "data": [{"molecule": "Bio-SGGGSGGGQLGPYELWEL CH (Biotin-SGGGSGGGQLGPYELWELCH) [cysteine-modified mimotope]", "values": [{"measurement": "recognition by Trastuzumab compared with the unmodified mimotope", "setting": "trastuzumab [1]", "result": "almost the same extent"}, {"measurement": "slope of trastuzumab titration curve, less than that seen for the unmodified peptide", "setting": "trastuzumab [1]", "result": "approximately 10%"}]}, {"molecule": "5′ Biotin-TAGCGCAAATAAGCCGCCAGAAC GATGATATAAACAGCATTAGGTAAGCTACAACA [control scrambled sequence, reference compound]", "values": [{"measurement": "fluorescence signal of bilabeled probe hybridized to surface template", "setting": "[2]", "result": "not"}]}, {"molecule": "5′-Biotin-TAACTGTCAAAAGCCACTGTGTC CTGAAGAAAAGCAAAGACATCTGGACAAAAAGC", "values": [{"measurement": "fluorescence signal of bilabeled probe hybridized to surface template", "setting": "[2]", "result": "significant signal"}]}, {"molecule": "QLGPYEL WELSH (QLGPYELWELSH; segment of the mimotope) [mimotope for trastuzumab]", "values": [{"measurement": "binding affinity relative to the initial mimotope LLGPYELWEL SH", "setting": "trastuzumab [3]", "result": "higher binding affinity"}]}, {"molecule": "Bio-SGGGSGGGQLGPYELWELSH (Biotin-SGGGSGGGQLGPYELWELSH) [unmodified mimotope]", "values": [{"measurement": "fluorescent signal from trastuzumab", "setting": "trastuzumab [4]", "result": "clear-cut fluorescent signal"}]}, {"molecule": "B1", "values": [{"measurement": "binding to biotinylated Fab (bound material eluted from streptavidin magnetic beads)", "setting": "[5]", "result": "not"}]}]}
